Test results as given in ChEMBL document CHEMBL4396916, “Novel potent substituted 4-amino-2-thiopyrimidines as dual VEGFR-2 and BRAF kinase inhibitors” (Eur J Med Chem, 2019).

Legend:
[1] = molecular target: RAF proto-oncogene serine/threonine-protein kinase (Homo sapiens, UniProt P04049); test: Inhibition of RAF1 (unknown origin)
[2] = molecular target: Serine/threonine-protein kinase B-raf (Homo sapiens, UniProt P15056); test: Inhibition of human wild type BRAF by Kinase-Glo luminescence assay
[3] = molecular target: Platelet-derived growth factor receptor beta (Homo sapiens, UniProt P09619); test: Inhibition of PDGFR beta (unknown origin)
[4] = molecular target: Mast/stem cell growth factor receptor Kit (Homo sapiens, UniProt P10721); test: Inhibition of c-kit (unknown origin)
[5] = tested on: MDA-MB-468; test: Growth inhibition of human MDA-MB-468 cells at 10 uM incubated for 48 hrs by sulforhodamine B assay relative to control; type: functional; conditions: MDA-MB-468, 48 h, read-out: GI
[6] = tested on: UO-31; test: Growth inhibition of human UO31 cells at 10 uM incubated for 48 hrs by sulforhodamine B assay relative to control; type: functional; conditions: UO-31, 48 h, read-out: GI
[7] = tested on: T47D; test: Cytotoxicity against human T47D cells expressing wild type BRAF measured after 48 hrs by sulforhodamine B assay; type: functional, cell-based
[8] = tested on: HOP-62; test: Growth inhibition of human HOP62 cells at 10 uM incubated for 48 hrs by sulforhodamine B assay relative to control; type: functional; conditions: HOP-62, 48 h, read-out: GI
[9] = tested on: MDA-MB-435; test: Growth inhibition of human MDA-MB-435 cells at 10 uM incubated for 48 hrs by sulforhodamine B assay relative to control; type: functional; conditions: MDA-MB-435, 48 h, read-out: GI
[10] = tested on: SK-MEL-2; test: Growth inhibition of human SK-MEL-2 cells at 10 uM incubated for 48 hrs by sulforhodamine B assay relative to control; type: functional; conditions: SK-MEL-2, 48 h, read-out: GI
[11] = tested on: OVCAR-3; test: Growth inhibition of human OVCAR3 cells at 10 uM incubated for 48 hrs by sulforhodamine B assay relative to control; type: functional; conditions: OVCAR-3, 48 h, read-out: GI
[12] = tested on: U-251; test: Growth inhibition of human U251 cells at 10 uM incubated for 48 hrs by sulforhodamine B assay relative to control; type: functional; conditions: U-251, 48 h, read-out: GI
[13] = molecular target: Angiopoietin-1 receptor (Homo sapiens, UniProt Q02763); test: Inhibition of TIE2 (unknown origin)
[14] = tested on: NCI-H522; test: Growth inhibition of human NCI-H522 cells at 10 uM incubated for 48 hrs by sulforhodamine B assay relative to control; type: functional; conditions: NCI-H522, 48 h, read-out: GI
[15] = tested on: 786-0; test: Growth inhibition of human 786-0 cells at 10 uM incubated for 48 hrs by sulforhodamine B assay relative to control; type: functional; conditions: 786-0, 48 h, read-out: GI
[16] = tested on: EKVX; test: Growth inhibition of human EKVX cells at 10 uM incubated for 48 hrs by sulforhodamine B assay relative to control; type: functional; conditions: read-out: GI
[17] = tested on: MDA-MB-231; test: Growth inhibition of human MDA-MB-231 cells at 10 uM incubated for 48 hrs by sulforhodamine B assay relative to control; type: functional; conditions: MDA-MB-231, 48 h, read-out: GI
[18] = tested on: DU-145; test: Growth inhibition of human DU145 cells at 10 uM incubated for 48 hrs by sulforhodamine B assay relative to control; type: functional; conditions: DU-145, 48 h, read-out: GI
[19] = tested on: SNB-19; test: Growth inhibition of human SNB19 cells at 10 uM incubated for 48 hrs by sulforhodamine B assay relative to control; type: functional; conditions: SNB-19, 48 h, read-out: GI
[20] = tested on: MCF7; test: Growth inhibition of human MCF7 cells at 10 uM incubated for 48 hrs by sulforhodamine B assay relative to control; type: functional; conditions: MCF7, 48 h, read-out: GI
[21] = tested on: RPMI-8226; test: Growth inhibition of human RPMI8226 cells at 10 uM incubated for 48 hrs by sulforhodamine B assay relative to control; type: functional; conditions: RPMI-8226, 48 h, read-out: GI
[22] = tested on: MCF7; test: Cytotoxicity against human MCF7 cells expressing VEGFR2 and wild type BRAF measured after 48 hrs by sulforhodamine B assay; type: functional, cell-based; conditions: MCF7, 48 h
[23] = tested on: MOLT-4; test: Growth inhibition of human MOLT4 cells at 10 uM incubated for 48 hrs by sulforhodamine B assay relative to control; type: functional; conditions: MOLT-4, 48 h, read-out: GI
[24] = tested on: T47D; test: Growth inhibition of human T47D cells at 10 uM incubated for 48 hrs by sulforhodamine B assay relative to control; type: functional; conditions: read-out: GI
[25] = tested on: SN12C; test: Growth inhibition of human SN12C cells at 10 uM incubated for 48 hrs by sulforhodamine B assay relative to control; type: functional; conditions: read-out: GI
[26] = molecular target: Fibroblast growth factor receptor 1 (Homo sapiens, UniProt P11362); test: Inhibition of FGFR1 (unknown origin)
[27] = molecular target: Vascular endothelial growth factor receptor 2 (Homo sapiens, UniProt P35968); test: Inhibition of human N-terminal GST tagged VEGFR-2 expressed in baculovirus infected Sf9 cells using poly (Glu,Tyr) 4:1 as substrate in presence of ATP by Kinase-Glo luminescence assay
[28] = tested on: SK-MEL-28; test: Growth inhibition of human SK-MEL-28 cells at 10 uM incubated for 48 hrs by sulforhodamine B assay relative to control; type: functional; conditions: SK-MEL-28, 48 h, read-out: GI
[29] = tested on: NCI/ADR-RES; test: Growth inhibition of human NCI/ADR-RES cells at 10 uM incubated for 48 hrs by sulforhodamine B assay relative to control; type: functional; conditions: read-out: GI
[30] = tested on: OVCAR-4; test: Growth inhibition of human OVCAR4 cells at 10 uM incubated for 48 hrs by sulforhodamine B assay relative to control; type: functional; conditions: OVCAR-4, 48 h, read-out: GI
[31] = tested on: Malme-3M; test: Growth inhibition of human MALME-3M cells at 10 uM incubated for 48 hrs by sulforhodamine B assay relative to control; type: functional; conditions: read-out: GI
[32] = tested on: MCF7; test: Inhibition of VEGFR2 level in human MCF7 cells at 10 uM measured after 48 hrs by ELISA relative to control; type: functional; conditions: MCF7, 48 h
[33] = tested on: UACC-257; test: Growth inhibition of human UACC257 cells at 10 uM incubated for 48 hrs by sulforhodamine B assay relative to control; type: functional; conditions: UACC-257, 48 h, read-out: GI
[34] = tested on: NCI-H226; test: Growth inhibition of human NCI-H226 cells at 10 uM incubated for 48 hrs by sulforhodamine B assay relative to control; type: functional; conditions: NCI-H226, 48 h, read-out: GI
[35] = tested on: NCI-H23; test: Growth inhibition of human NCI-H23 cells at 10 uM incubated for 48 hrs by sulforhodamine B assay relative to control; type: functional; conditions: NCI-H23, 48 h, read-out: GI
[36] = tested on: HCT-116; test: Growth inhibition of human HCT116 cells at 10 uM incubated for 48 hrs by sulforhodamine B assay relative to control; type: functional; conditions: HCT-116, 48 h, read-out: GI
[37] = tested on: PC-3; test: Growth inhibition of human PC3 cells at 10 uM incubated for 48 hrs by sulforhodamine B assay relative to control; type: functional; conditions: PC-3, 48 h, read-out: GI
[38] = tested on: K562; test: Growth inhibition of human K562 cells at 10 uM incubated for 48 hrs by sulforhodamine B assay relative to control; type: functional; conditions: K562, 48 h, read-out: GI

Sequence of Platelet-derived growth factor receptor beta (P09619 whole entry): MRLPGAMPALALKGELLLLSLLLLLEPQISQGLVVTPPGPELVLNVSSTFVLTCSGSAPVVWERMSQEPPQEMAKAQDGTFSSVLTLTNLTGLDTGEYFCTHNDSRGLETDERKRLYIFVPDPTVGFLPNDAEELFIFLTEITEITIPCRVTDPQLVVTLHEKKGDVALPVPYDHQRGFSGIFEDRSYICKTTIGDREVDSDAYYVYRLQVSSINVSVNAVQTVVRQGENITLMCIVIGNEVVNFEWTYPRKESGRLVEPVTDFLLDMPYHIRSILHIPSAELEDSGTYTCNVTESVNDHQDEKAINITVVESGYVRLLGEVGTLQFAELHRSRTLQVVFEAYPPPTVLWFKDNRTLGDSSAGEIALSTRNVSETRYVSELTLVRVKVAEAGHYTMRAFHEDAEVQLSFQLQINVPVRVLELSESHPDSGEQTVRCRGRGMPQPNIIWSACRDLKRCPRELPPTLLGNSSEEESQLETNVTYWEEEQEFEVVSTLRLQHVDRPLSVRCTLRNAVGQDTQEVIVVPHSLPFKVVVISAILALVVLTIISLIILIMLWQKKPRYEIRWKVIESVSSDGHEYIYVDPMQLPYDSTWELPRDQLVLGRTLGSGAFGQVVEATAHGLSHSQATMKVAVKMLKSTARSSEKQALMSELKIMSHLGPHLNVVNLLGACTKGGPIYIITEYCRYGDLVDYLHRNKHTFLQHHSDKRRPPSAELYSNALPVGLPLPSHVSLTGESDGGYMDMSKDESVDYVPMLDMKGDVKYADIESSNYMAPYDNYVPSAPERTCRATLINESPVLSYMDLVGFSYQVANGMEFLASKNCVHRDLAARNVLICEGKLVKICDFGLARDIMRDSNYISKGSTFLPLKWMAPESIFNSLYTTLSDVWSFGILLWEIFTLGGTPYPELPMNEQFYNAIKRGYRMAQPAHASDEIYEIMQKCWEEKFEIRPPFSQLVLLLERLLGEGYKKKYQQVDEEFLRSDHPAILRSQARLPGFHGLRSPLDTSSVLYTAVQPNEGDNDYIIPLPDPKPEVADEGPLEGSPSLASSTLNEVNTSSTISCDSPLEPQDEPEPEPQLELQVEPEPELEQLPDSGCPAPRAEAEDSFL
Sequence of Angiopoietin-1 receptor (Q02763 whole entry): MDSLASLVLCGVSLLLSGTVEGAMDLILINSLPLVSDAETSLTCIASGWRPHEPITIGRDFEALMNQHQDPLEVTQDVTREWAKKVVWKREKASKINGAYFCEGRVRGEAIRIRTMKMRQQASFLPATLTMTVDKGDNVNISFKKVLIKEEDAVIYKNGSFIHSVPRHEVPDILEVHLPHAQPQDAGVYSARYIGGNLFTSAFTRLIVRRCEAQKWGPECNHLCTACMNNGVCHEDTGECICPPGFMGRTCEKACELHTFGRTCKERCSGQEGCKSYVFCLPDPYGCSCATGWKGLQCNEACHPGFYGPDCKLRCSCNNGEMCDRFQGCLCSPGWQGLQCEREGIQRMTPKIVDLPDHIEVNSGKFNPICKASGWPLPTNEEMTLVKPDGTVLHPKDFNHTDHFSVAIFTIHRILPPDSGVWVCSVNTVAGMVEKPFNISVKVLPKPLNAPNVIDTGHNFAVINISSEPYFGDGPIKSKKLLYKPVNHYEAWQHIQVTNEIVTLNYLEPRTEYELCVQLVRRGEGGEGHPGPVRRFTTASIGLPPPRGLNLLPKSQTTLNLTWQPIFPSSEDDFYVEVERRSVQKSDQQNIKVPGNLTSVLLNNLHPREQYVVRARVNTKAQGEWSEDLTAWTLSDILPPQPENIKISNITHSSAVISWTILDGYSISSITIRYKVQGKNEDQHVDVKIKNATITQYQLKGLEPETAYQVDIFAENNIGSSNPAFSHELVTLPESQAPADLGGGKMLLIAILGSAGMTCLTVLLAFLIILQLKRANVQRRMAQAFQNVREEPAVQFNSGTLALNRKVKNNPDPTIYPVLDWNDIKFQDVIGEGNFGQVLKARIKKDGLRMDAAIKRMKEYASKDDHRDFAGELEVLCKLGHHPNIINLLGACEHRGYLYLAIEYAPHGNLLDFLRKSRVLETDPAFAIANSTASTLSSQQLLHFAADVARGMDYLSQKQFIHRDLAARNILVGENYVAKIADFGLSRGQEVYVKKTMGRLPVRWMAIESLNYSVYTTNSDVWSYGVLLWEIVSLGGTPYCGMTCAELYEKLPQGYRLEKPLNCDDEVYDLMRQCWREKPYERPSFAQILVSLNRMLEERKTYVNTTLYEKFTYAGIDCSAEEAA
Sequence of Mast/stem cell growth factor receptor Kit (P10721 whole entry): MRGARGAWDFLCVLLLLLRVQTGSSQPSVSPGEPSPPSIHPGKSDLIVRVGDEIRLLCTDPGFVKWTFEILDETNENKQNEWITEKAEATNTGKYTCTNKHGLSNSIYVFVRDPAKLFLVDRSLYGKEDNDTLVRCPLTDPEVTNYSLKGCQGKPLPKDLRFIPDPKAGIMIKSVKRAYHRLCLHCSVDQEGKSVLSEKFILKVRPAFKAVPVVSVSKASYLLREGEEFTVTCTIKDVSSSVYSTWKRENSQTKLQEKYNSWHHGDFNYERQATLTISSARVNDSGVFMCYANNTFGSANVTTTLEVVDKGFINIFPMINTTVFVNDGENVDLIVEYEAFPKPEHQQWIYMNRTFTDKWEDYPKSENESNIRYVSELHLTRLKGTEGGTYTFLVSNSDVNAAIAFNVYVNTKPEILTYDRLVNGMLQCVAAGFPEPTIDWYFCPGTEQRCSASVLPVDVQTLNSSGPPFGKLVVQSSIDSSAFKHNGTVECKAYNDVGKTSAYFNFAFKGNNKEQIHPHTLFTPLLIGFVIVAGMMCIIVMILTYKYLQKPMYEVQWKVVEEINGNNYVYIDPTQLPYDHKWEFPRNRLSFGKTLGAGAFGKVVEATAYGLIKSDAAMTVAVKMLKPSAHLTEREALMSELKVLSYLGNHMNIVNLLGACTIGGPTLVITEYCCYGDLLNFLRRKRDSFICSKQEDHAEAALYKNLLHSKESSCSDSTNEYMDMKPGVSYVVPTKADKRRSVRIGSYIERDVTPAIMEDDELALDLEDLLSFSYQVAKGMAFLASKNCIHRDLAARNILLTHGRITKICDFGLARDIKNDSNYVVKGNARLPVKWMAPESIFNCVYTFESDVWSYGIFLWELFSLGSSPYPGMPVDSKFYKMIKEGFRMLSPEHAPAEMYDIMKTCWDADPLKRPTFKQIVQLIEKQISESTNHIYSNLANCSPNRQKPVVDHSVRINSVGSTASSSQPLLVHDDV
Sequence of Vascular endothelial growth factor receptor 2 (P35968 whole entry): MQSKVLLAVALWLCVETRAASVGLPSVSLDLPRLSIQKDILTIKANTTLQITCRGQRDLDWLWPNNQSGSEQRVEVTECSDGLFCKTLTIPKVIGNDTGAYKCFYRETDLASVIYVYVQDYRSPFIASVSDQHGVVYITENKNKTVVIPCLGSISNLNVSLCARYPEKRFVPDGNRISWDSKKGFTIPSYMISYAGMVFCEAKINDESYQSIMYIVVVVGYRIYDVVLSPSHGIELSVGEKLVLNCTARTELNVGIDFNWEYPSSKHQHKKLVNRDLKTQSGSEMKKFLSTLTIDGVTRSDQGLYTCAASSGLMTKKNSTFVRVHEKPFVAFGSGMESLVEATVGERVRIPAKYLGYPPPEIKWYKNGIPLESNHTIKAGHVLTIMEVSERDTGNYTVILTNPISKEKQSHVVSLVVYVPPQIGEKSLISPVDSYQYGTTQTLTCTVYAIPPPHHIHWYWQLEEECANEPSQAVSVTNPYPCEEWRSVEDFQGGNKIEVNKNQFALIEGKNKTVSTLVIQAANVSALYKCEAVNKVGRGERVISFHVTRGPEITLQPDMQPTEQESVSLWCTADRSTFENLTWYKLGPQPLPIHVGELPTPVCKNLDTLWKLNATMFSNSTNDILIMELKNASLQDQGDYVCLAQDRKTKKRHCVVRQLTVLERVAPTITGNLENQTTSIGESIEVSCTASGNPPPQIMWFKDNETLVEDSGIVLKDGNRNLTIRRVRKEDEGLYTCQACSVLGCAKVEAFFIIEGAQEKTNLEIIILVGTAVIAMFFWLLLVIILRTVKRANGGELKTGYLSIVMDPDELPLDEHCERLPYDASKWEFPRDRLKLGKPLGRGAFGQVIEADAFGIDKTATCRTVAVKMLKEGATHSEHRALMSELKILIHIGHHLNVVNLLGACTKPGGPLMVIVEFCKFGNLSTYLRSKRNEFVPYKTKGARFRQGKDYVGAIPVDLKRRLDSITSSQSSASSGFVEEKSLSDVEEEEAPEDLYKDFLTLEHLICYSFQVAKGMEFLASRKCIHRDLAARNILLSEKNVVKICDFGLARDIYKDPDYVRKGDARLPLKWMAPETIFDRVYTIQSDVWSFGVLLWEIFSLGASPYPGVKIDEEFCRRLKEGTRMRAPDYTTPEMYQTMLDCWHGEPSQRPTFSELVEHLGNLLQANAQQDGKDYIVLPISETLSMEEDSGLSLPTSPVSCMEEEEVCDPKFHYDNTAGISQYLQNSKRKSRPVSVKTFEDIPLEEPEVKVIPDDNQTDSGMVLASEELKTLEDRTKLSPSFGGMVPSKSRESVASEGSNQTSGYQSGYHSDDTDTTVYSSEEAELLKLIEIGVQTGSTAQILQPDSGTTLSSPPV

SMILES	IC50 [1] [nM]	IC50 [2] [nM]	IC50 [3] [nM]	IC50 [4] [nM]	inhibition of growth at 10 µM [5] [%]	inhibition of growth at 10 µM [6] [%]	IC50 [7] [nM]	inhibition of growth at 10 µM [8] [%]	inhibition of growth at 10 µM [9] [%]	inhibition of growth at 10 µM [10] [%]	inhibition of growth at 10 µM [11] [%]	inhibition of growth at 10 µM [12] [%]	IC50 [13] [nM]	inhibition of growth at 10 µM [14] [%]	inhibition of growth at 10 µM [15] [%]	inhibition of growth at 10 µM [16] [%]	inhibition of growth at 10 µM [17] [%]	inhibition of growth at 10 µM [18] [%]	inhibition of growth at 10 µM [19] [%]	inhibition of growth at 10 µM [20] [%]	further results
O=C(CSc1nccc(Nc2ccc(N3CCOCC3)cc2)n1)c1ccc(F)cc1	130	110	150	250	38	27	14400	69	16	10	18	16	480	49	13	23	22	16	37	31	inhibition of growth at 10 µM [21]: 21%; IC50 [22]: 26900 nM; inhibition of growth at 10 µM [23]: 25%; inhibition of growth at 10 µM [24]: 34%; inhibition of growth at 10 µM [25]: 20%; IC50 [26]: 130 nM; IC50 [27]: 260 nM; inhibition of growth at 10 µM [28]: 19%; inhibition of growth at 10 µM [29]: 26%; inhibition of growth at 10 µM [30]: 57%; inhibition of growth at 10 µM [31]: 29%; inhibition at 10 µM [32]: 33%; inhibition of growth at 10 µM [33]: 19%; inhibition of growth at 10 µM [34]: 45%; inhibition of growth at 10 µM [35]: 21%; inhibition of growth at 10 µM [36]: 32%; inhibition of growth at 10 µM [37]: 27%; inhibition of growth at 10 µM [38]: 28%
CCOC(=O)c1ccc(Nc2ccnc(SCC(=O)c3ccc(C#N)cc3)n2)cc1	410	150	390	5160	52	52	2180	37	32	29	21	15	1390	73	22	26	19	21	10	33	inhibition of growth at 10 µM [21]: 80%; IC50 [22]: 13000 nM; inhibition of growth at 10 µM [23]: 84%; inhibition of growth at 10 µM [24]: 90%; inhibition of growth at 10 µM [25]: 26%; IC50 [26]: 280 nM; IC50 [27]: 170 nM; inhibition of growth at 10 µM [28]: 19%; inhibition of growth at 10 µM [29]: 58%; inhibition of growth at 10 µM [30]: 35%; inhibition of growth at 10 µM [31]: 19%; inhibition at 10 µM [32]: 84%; inhibition of growth at 10 µM [33]: 22%; inhibition of growth at 10 µM [34]: 38%; inhibition of growth at 10 µM [35]: 20%; inhibition of growth at 10 µM [36]: 28%; inhibition of growth at 10 µM [37]: 60%; inhibition of growth at 10 µM [38]: 49%
